Measured values as given in article PMC9995496, “A screen for MeCP2-TBL1 interaction inhibitors using a luminescence-based assay” (Scientific Reports, 2023).
Counter-ions that a name gives are not always drawn.

system: PRKACA-PRKAR2A interaction (SmBiT-PRKACA / LgBiT-PRKAR2A), protein kinase A; parameters: NanoLuc complementation counter-screen in cell extract, PRKACA with PRKAR2A, loss of luminescence, detects NanoLuc interference; conditions: 0.5 h, 20 µM; inhibitor

With `Cc1cccc(C)c1NC1=NCCCS1` [UM0134421:02, Xylazine HCl] the “Inh (PKA)” value was 1.103%.

same assay, conditions: counter-screen for NanoLuc interference, 0.5 h, 20 µM, inhibitor, Inh (PKA)

Going from `O=C(O)/C=C/c1ccc(Cn2ccnc2)cc1` [UM0134313:02, Ozagrel HCl] to `CNCc1ccc(-c2[nH]c3cc(F)cc4c3c2CCNC4=O)cc1` [UM0135471:02, Rucaparib (AG-014699,PF-01367338)], the “Inh (PKA)” value rises from -0.66% to 3.125%.

same assay, conditions: counter-screen for NanoLuc interference; 0.5 h, 20 µM; inhibitor

First: CO/N=C(\C(=O)N[C@@H]1C(=O)N2C(C(=O)O)=C(COC(C)=O)CS[C@H]12)c1csc(N)n1 [UM0133637:02, Cefotaxime (sodium salt)]
Second: CO[C@@]12[C@H](COC(N)=O)C3=C(C(=O)C(C)=C(N)C3=O)N1C[C@@H]1N[C@@H]12 [UM0133761:02, Mitomycin C]
The “Inh (PKA)” value of the first is higher: 1.378% for the first, 0.5965% for the second.

First: CC[C@@]1(O)C(=O)OCc2c1cc1n(c2=O)Cc2cc3ccccc3nc2-1 [UM0133648:02, Camptothecin]
Second: CC(C)(C#N)c1ccc(N2C(=O)OCc3cnc4ccc(-c5cnc6ccccc6c5)cc4c32)cc1 [UM0135469:02, ETP-46464]
The “Inh (PKA)” value of the first is lower: 1.997% for the first, 11.28% for the second.

Going from `COCCOC(=O)C1=C(C)NC(C)=C(C(=O)OC/C=C/c2ccccc2)C1c1cccc([N+](=O)[O-])c1` (centres unmarked) [UM0133650:02, Cilnidipine] to `O=C(/C=C/c1ccc(O)c(O)c1)OCCc1ccccc1` [UM0133732:02, Caffeic Acid Phenethyl Ester], the “Inh (PKA)” value falls from 81.64% to 43.72%.

Compared with `CCCCCCCCCCCC1=C(O)C(=O)C=C(O)C1=O` [UM0133662:02, Embelin], `CC1=CC(=O)c2c(O)cccc2C1=O` [UM0133960:02, Plumbagin] is higher in “Inh (PKA)” value: 15.52% for the first, 19.95% for the second.

First: CC(C)=CC[C@@H](O)C1=CC(=O)c2c(O)ccc(O)c2C1=O [UM0133665:02, Shikonin]
Second: O=C(/C=C/c1ccc(O)c(O)c1)c1ccc(O)cc1O [UM0133869:02, Butein]
The “Inh (PKA)” value of the first is lower: 46.09% for the first, 52.51% for the second.

Going from `Nc1ccn([C@H]2CC[C@@H](CO)O2)c(=O)n1` [UM0133684:02, Zalcitabine] to `C[C@H]1CCC/C=C/[C@@H]2C[C@H](O)C[C@H]2[C@H](O)/C=C/C(=O)O1` [UM0133745:02, Brefeldin A], the “Inh (PKA)” value rises from -0.04839% to 1.414%.

Going from `CC(C)(C)NC(=O)[C@H]1CC[C@H]2[C@@H]3CC[C@H]4NC(=O)C=C[C@]4(C)[C@H]3CC[C@]12C` [UM0133719:02, Finasteride] to `C#C[C@]1(OC(C)=O)CC[C@H]2[C@@H]3CCC4=C[C@@H](OC(C)=O)CC[C@@H]4[C@H]3CC[C@@]21C` [UM0134301:02, Ethynodiol diacetate], the “Inh (PKA)” value rises from 1.602% to 16.1%.

Going from `COCCCC/C(=N\OCCN)c1ccc(C(F)(F)F)cc1` [UM0133722:02, Fluvoxamine maleate] to `O=C(NCCN1CCOCC1)c1ccc(Cl)cc1` [UM0134186:02, Moclobemide (Ro 111163)], the “Inh (PKA)” value falls from 2.345% to 0.401%.

First: O=c1[nH]cc(F)c(=O)[nH]1 [UM0133724:03, Fluorouracil (Adrucil)]
Second: S=c1[nH]cnc2nc[nH]c12 [UM0135507:02, Mercaptopurine (6-MP)]
The “Inh (PKA)” value of the first is lower: 1.181% for the first, 1.981% for the second.

Compared with `O=c1c(-c2ccc(O)cc2)coc2cc(O)cc(O)c12` [UM0133748:02, Genistein], `COc1ccc(-c2coc3cc(O)cc(O)c3c2=O)cc1` [UM0133867:02, Biochanin A] is higher in “Inh (PKA)” value: 59.26% for the first, 69.13% for the second.

Going from `CC1=C(/C=C/C(C)=C/C=C/C(C)=C\C(=O)O)C(C)(C)CCC1` [UM0133752:04, Isotretinoin] to `C[C@H]1COC2=C1C(=O)C(=O)c1c2ccc2c1CCCC2(C)C` [UM0134017:02, Cryptotanshinone], the “Inh (PKA)” value rises from 16.35% to 20.28%.

Compared with `CC1(C)CCC2=C(O1)c1ccccc1C(=O)C2=O` [UM0133760:02, Beta-Lapachone], `CN1CCC(=C2c3ccccc3CC(=O)c3sccc32)CC1` [UM0133795:02, Ketotifen Fumarate] is lower in “Inh (PKA)” value: 9.4% for the first, 5.692% for the second.

Compared with `COc1cccc2c1C(=O)c1c(O)c3c(c(O)c1C2=O)C[C@@](O)(C(=O)CO)C[C@@H]3O[C@H]1C[C@H](N)[C@H](O)[C@H](C)O1` [UM0133765:03, Doxorubicin], `COC[C@H]1OC(=O)c2coc3c2[C@@]1(C)C1=C(C3=O)[C@@H]2CCC(=O)[C@@]2(C)C[C@H]1OC(C)=O` [UM0134355:02, Wortmannin] is lower in “Inh (PKA)” value: 45.98% for the first, 31.91% for the second.

Compared with `CC1=C2C[C@H]3[C@@H](CC=C4C[C@@H](O)CC[C@@]43C)[C@@H]2CC[C@]12O[C@@H]1C[C@H](C)CN[C@H]1[C@H]2C` [UM0133766:02, Cyclopamine], `C[C@@H]1O[C@@H](O[C@H]2C[C@@H](O)[C@]3(CO)[C@H]4[C@H](O)C[C@]5(C)[C@@H](C6=CC(=O)OC6)CC[C@]5(O)[C@@H]4CC[C@]3(O)C2)[C@H](O)[C@H](O)[C@H]1O` [UM0134215:02, Ouabain] is lower in “Inh (PKA)” value: 2.445% for the first, 0.8032% for the second.

Going from `C/C(O)=C(\C#N)C(=O)Nc1cc(Br)ccc1Br` [UM0133802:02, LFM-A13] to `COc1ccc(/C=C/C(=O)Nc2ccccc2C(=O)O)cc1OC` [UM0134356:02, Tranilast], the “Inh (PKA)” value falls from 54.46% to 18.34%.

Going from `Cc1ccc(Cl)c(Nc2ccccc2C(=O)O)c1Cl` [UM0133818:02, Meclofenamate Sodium] to `CS(=O)(=O)c1ccc(C(=O)Nc2ccc(Cl)c(-c3ccccn3)c2)c(Cl)c1` [UM0135488:02, GDC-0449 (Vismodegib)], the “Inh (PKA)” value falls from 21.07% to 8.773%.

Compared with `Cc1[nH]c(=O)c(C#N)cc1-c1ccncc1` [UM0133819:02, Milrinone], `Cc1ccc(C(=O)Cn2c3c(sc2=N)CCCC3)cc1` [UM0134099:02, Pifithrin-?] is higher in “Inh (PKA)” value: -0.01503% for the first, 9.08% for the second.

Compared with `O=c1cc(-c2ccc(O)cc2)oc2cc(O)cc(O)c12` [UM0133861:02, Apigenin], `O=c1cc(-c2ccc(O)c(O)c2)oc2cc(O)cc(O)c12` [UM0133934:02, Luteolin] is higher in “Inh (PKA)” value: 24.67% for the first, 25.55% for the second.

Compared with `O=c1c(O)c(-c2cc(O)c(O)c(O)c2)oc2cc(O)cc(O)c12` [UM0133944:02, Myricetin], `COc1c2occc2cc2ccc(=O)oc12` [UM0134068:02, 8-Methoxypsoralen] is lower in “Inh (PKA)” value: 47.98% for the first, 2.167% for the second.

First: CN1C(C(=O)Nc2ccccn2)=C(O)c2ccccc2S1(=O)=O [UM0134086:02, Piroxicam]
Second: CS(=O)(=O)c1ccc(-c2cnc(N)c(C(=O)Nc3ccccc3)n2)cc1 [UM0135461:02, VE-821]
The “Inh (PKA)” value of the first is lower: 4.329% for the first, 11.31% for the second.

Compared with `Cc1nc2n(c(=O)c1CCN1CCC(c3noc4cc(F)ccc34)CC1)CCCC2` [UM0134126:02, Risperidone], `COc1ccccc1N1CCN(CCN(C(=O)C2CCCCC2)c2ccccn2)CC1` [UM0134420:02, WAY-100635 maleate salt] is lower in “Inh (PKA)” value: 4.965% for the first, 1.248% for the second.

First: Clc1cccc(Cl)c1NC1=NCCN1 [UM0134172:02, Clonidine HCl]
Second: c1ccc(CN(CC2=NCCN2)c2ccccc2)cc1 [UM0134174:02, Antazoline HCl]
The “Inh (PKA)” value of the first is higher: 1.329% for the first, 0.9494% for the second.

Compared with `O=C1CN(/N=C/c2ccc(-c3ccc([N+](=O)[O-])cc3)o2)C(=O)N1` [UM0134180:02, Dantrolene, sodium salt], `CN(C)c1ccc(/C=C2\C(=O)Nc3ccccc32)cc1` [UM0134350:02, SU 4312] is higher in “Inh (PKA)” value: 25.72% for the first, 71.43% for the second.

Going from `C[C@H]1O[C@@H](O[C@H]2[C@@H](O)C[C@H](O[C@H]3[C@@H](O)C[C@H](O[C@H]4CC[C@@]5(C)[C@H](CC[C@@H]6[C@@H]5C[C@@H](O)[C@]5(C)[C@@H](C7=CC(=O)OC7)CC[C@]65O)C4)O[C@@H]3C)O[C@@H]2C)C[C@H](O)[C@@H]1O` [UM0134205:02, Digoxin] to `CO[C@H]1C[C@@H]2CC[C@@H](C)[C@@](O)(O2)C(=O)C(=O)N2CCCC[C@H]2C(=O)O[C@H]([C@H](C)C[C@@H]2CC[C@@H](OC(=O)C(C)(CO)CO)[C@H](OC)C2)CC(=O)[C@H](C)/C=C(\C)[C@@H](O)[C@@H](OC)C(=O)[C@H](C)C[C@H](C)/C=C/C=C/C=C/1C` [UM0135484:03, Temsirolimus], the “Inh (PKA)” value rises from -2.961% to 1.626%.

Compared with `CCC1=C(C)CN(C(=O)NCCc2ccc(S(=O)(=O)NC(=O)N[C@H]3CC[C@H](C)CC3)cc2)C1=O` [UM0134252:02, Glimepiride], `O=C(c1cc(Cc2n[nH]c(=O)c3ccccc23)ccc1F)N1CCN(C(=O)C2CC2)CC1` [UM0135473:02, Olaparib (AZD2281, Ku-0059436)] is lower in “Inh (PKA)” value: 4.382% for the first, 2.339% for the second.

First: CC1(C)[C@@H](OC(=O)CCC(=O)O)CC[C@]2(C)[C@H]3C(=O)C=C4[C@@H]5C[C@@](C)(C(=O)O)CC[C@]5(C)CC[C@@]4(C)[C@]3(C)CC[C@@H]12 [UM0134288:02, Carbenoxolone disodium]
Second: CC1(C)CCC(CN2CCN(c3ccc(C(=O)NS(=O)(=O)c4ccc(NCC5CCOCC5)c([N+](=O)[O-])c4)c(Oc4cnc5[nH]ccc5c4)c3)CC2)=C(c2ccc(Cl)cc2)C1 [UM0135497:03, ABT-199]
The “Inh (PKA)” value of the first is lower: 9.677% for the first, 28.89% for the second.

Going from `CC1=C(CC(=O)O)c2cc(F)ccc2/C1=C\c1ccc([S+](C)[O-])cc1` (centres unmarked) [UM0134349:02, Sulindac] to `COc1cc(Nc2ncc3c(n2)-c2ccc(Cl)cc2C(c2c(F)cccc2OC)=NC3)ccc1C(=O)O` [UM0135487:02, MLN8237 (Alisertib)], the “Inh (PKA)” value rises from 3.185% to 50.43%.

Going from `C=CCn1c(=O)c2cnc(Nc3ccc(N4CCN(C)CC4)cc3)nc2n1-c1cccc(C(C)(C)O)n1` [UM0135452:02, MK-1775] to `CNCc1ccc(-c2cc(-c3nc(-c4ccc(S(=O)(=O)C(C)C)cc4)cnc3N)on2)cc1` [UM0135462:02, VE-822], the “Inh (PKA)” value rises from 7.841% to 14.15%.

Compared with `O=c1cc(N2CCOCC2)oc2c(-c3cccc4c3sc3ccccc34)cccc12` [UM0135467:02, NU7441 (KU-57788)], `Cn1cncc1[C@@](N)(c1ccc(Cl)cc1)c1ccc2c(c1)c(-c1cccc(Cl)c1)cc(=O)n2C` [UM0135485:03, Tipifarnib (Zarnestra)] is higher in “Inh (PKA)” value: 24.55% for the first, 47.09% for the second.

`CC(C)C[C@H](NC(=O)[C@H](Cc1ccccc1)NC(=O)c1cnccn1)B(O)O` [UM0135483:03, Bortezomib (PS-341)] was tested, and the “Inh (PKA)” value was 1.59%.
